According to US9642831B2, “Substituted chromanes and method of use” (AbbVie S.á.r.l., priority 2014, dated 2017):

Molecular target: F508delCFTR (Homo sapiens, UniProt P13569, DEL508-508)
Assay: Cell Surface Expression-Horse Radish Peroxidase (CSE-HRP) assay
Type: cell-based
Design: expressed in transfected cells; host or cells: CFBE41o- human lung derived epithelial cell line, doxycycline-inducible
Settings: CFBE4lo-F508delCFTR-HRP cells; for EC50: 18-24 hours at 33° C., 8-point curve, highest concentration 20 μM, luminescence readout; for Emax: maximum % activity at any tested concentration, normalized to on-plate positive control (3 μM Example 1)
Method in brief: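 Following 18-24 h compound exposure at 33° C. Expression was doxycycline-induced beforehand. % activity versus DMSO and a 3 μM corrector control gave maximum activity and EC50 from a variable-Hill sigmoidal fit.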

Chain of F508delCFTR (P13569 with tags, fused parts or gaps DEL508-508): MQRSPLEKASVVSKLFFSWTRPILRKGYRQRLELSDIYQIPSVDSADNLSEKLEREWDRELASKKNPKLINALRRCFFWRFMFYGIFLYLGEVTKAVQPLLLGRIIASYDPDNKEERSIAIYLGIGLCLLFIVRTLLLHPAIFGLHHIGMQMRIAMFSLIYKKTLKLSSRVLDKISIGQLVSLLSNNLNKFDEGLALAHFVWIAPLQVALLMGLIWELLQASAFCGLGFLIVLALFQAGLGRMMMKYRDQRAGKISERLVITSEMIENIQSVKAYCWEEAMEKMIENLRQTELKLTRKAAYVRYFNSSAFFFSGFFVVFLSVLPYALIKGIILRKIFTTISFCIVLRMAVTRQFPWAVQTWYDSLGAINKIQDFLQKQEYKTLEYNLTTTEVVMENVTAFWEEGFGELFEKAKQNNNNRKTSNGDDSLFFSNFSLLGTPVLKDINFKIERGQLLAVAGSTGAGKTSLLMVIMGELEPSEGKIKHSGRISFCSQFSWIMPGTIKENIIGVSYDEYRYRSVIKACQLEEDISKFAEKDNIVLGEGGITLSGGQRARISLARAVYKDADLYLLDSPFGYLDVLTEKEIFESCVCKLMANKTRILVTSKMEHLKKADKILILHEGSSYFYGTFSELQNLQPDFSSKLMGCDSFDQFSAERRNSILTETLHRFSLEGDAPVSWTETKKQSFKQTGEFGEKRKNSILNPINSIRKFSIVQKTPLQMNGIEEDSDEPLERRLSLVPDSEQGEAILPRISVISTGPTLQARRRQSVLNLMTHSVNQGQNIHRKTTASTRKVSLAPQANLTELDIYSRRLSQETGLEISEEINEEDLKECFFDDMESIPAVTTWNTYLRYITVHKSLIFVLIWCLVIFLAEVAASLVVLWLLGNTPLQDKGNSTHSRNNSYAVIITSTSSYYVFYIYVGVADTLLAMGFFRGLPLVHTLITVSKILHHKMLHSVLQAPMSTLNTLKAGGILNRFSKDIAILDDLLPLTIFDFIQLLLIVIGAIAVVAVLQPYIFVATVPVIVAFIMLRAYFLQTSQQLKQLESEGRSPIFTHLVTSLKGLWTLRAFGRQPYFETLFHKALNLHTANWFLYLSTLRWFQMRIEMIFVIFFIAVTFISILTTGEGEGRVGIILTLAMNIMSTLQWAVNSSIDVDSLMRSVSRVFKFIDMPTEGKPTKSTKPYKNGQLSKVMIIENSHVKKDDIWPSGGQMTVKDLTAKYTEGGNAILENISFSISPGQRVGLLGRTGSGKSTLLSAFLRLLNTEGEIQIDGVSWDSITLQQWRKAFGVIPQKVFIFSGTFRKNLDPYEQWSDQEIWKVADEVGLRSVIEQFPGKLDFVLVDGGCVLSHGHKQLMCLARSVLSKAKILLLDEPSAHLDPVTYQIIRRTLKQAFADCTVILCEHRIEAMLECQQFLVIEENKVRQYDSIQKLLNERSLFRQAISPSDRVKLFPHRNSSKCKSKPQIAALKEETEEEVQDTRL

Row | Structure (SMILES) | EC50 [nM] | Emax [%]
1 | CCCN(CCO)C(=O)[C@H]1C[C@@H](NC(=O)C2(c3ccc4c(c3)OC(F)(F)O4)CC2)c2ccc(OC)cc2O1 (racemic) [Example 166, rac-(2R,4R)-4-({[1-(2,2-difluoro-1,3-benzodioxol-5-yl)cyclopropyl]carbonyl}amino)-N-(2-hydroxyethyl)-7-methoxy-N-propyl-3,4-dihydro-2H-chromene-2-carboxamide] | 2000 | 65
2 | O=C(NC1CCOc2cc(Br)ccc21)C1(c2ccc3c(c2)OC(F)(F)O3)CC1 (stereo not drawn) [Example 56, N-(7-bromo-3,4-dihydro-2H-chromen-4-yl)-1-(2,2-difluoro-1,3-benzodioxol-5-yl)cyclopropanecarboxamide] | 3120 | 124
3 | COc1ccc2c(c1)OC1(CC(C(=O)O)C1)CC2NC(=O)C1(c2ccc3c(c2)OC(F)(F)O3)CC1 (stereo not drawn) [Example 129, 4-({[1-(2,2-difluoro-1,3-benzodioxol-5-yl)cyclopropyl]carbonyl}amino)-7-methoxy-3,4-dihydrospiro[chromene-2,1′-cyclobutane]-3′-carboxylic acid] | 6200 | 44
4 | COc1ccc2c(c1)O[C@@H](C(=O)NCCc1cccc(O)c1)C[C@H]2NC(=O)C1(c2ccc3c(c2)OC(F)(F)O3)CC1 (racemic) [Example 179, rac-(2R,4R)-4-({[1-(2,2-difluoro-1,3-benzodioxol-5-yl)cyclopropyl]carbonyl}amino)-N-[2-(3-hydroxyphenyl)ethyl]-7-methoxy-3,4-dihydro-2H-chromene-2-carboxamide] | 800 | 69
5 | COc1ccc(C2CC(NC(=O)C3(c4ccc5c(c4)OC(F)(F)O5)CC3)c3ccccc3O2)cc1OC (stereo not drawn) [Example 69, 1-(2,2-difluoro-1,3-benzodioxol-5-yl)-N-[2-(3,4-dimethoxyphenyl)-3,4-dihydro-2H-chromen-4-yl]cyclopropanecarboxamide] | 2120 | 109
6 | COCCOc1ccc2c(c1)O[C@@H](c1cccc(C(=O)O)c1)C[C@H]2NC(=O)C1(c2ccc3c(c2)OC(F)(F)O3)CC1 [Example 97, 3-[(2R,4R)-4-({[1-(2,2-difluoro-1,3-benzodioxol-5-yl)cyclopropyl]carbonyl}amino)-7-(2-methoxyethoxy)-3,4-dihydro-2H-chromen-2-yl]benzoic acid] | 380 | 90
7 | COc1cccc([C@H]2C[C@@H](NC(=O)C3(c4ccc5c(c4)OC(F)(F)O5)CC3)c3cc(C(=O)O)ccc3O2)c1 [Example 44, (2R,4R)-4-({[1-(2,2-difluoro-1,3-benzodioxol-5-yl)cyclopropyl]carbonyl}amino)-2-(3-methoxyphenyl)-3,4-dihydro-2H-chromene-6-carboxylic acid] | ≥ 20000 | 14
8 | COc1ccc2c(c1)OC(c1ccc(Cl)cc1)CC2NC(=O)C1(c2ccc3c(c2)OC(F)(F)O3)CC1 (stereo not drawn) [Example 63, N-[2-(4-chlorophenyl)-7-methoxy-3,4-dihydro-2H-chromen-4-yl]-1-(2,2-difluoro-1,3-benzodioxol-5-yl)cyclopropanecarboxamide] | 630 | 106
9 | COc1ccc2c(c1)O[C@@H](C(=O)O)C[C@@H]2NC(=O)C1(c2ccc3c(c2)OC(F)(F)O3)CC1 (racemic) [Example 134, rac-(2R,4S)-4-({[1-(2,2-difluoro-1,3-benzodioxol-5-yl)cyclopropyl]carbonyl}amino)-7-methoxy-3,4-dihydro-2H-chromene-2-carboxylic acid] | > 20000 | 4
10 | COc1ccc2c(c1)O[C@@H](C(=O)NC(CO)c1ccccc1)C[C@H]2NC(=O)C1(c2ccc3c(c2)OC(F)(F)O3)CC1 (mixture of isomers) [Example 171, rac-(2R,4R)-4-({[1-(2,2-difluoro-1,3-benzodioxol-5-yl)cyclopropyl]carbonyl}amino)-N-(2-hydroxy-1-phenylethyl)-7-methoxy-3,4-dihydro-2H-chromene-2-carboxamide] | 2290 | 40
11 | COc1ccc2c(c1)O[C@@H](C(=O)NCC(C)(C)O)C[C@@H]2NC(=O)C1(c2ccc3c(c2)OC(F)(F)O3)CC1 (racemic) [Example 188, rac-(2R,4S)-4-({[1-(2,2-difluoro-1,3-benzodioxol-5-yl)cyclopropyl]carbonyl}amino)-N-(2-hydroxy-2-methylpropyl)-7-methoxy-3,4-dihydro-2H-chromene-2-carboxamide] | 4650 | 43
12 | COC(=O)c1cccc(C2CC(NC(=O)C3(c4ccc5c(c4)OC(F)(F)O5)CC3)c3ccc(OC)nc3O2)c1 (mixture of isomers) [Example 37, methyl 3-[4-({[1-(2,2-difluoro-1,3-benzodioxol-5-yl)cyclopropyl]carbonyl}amino)-7-methoxy-3,4-dihydro-2H-pyrano[2,3-b]pyridin-2-yl]benzoate] | 3050 | 88
13 | COc1ccc2c(c1)O[C@@H](C(=O)NCCc1cccc(O)c1)C[C@@H]2NC(=O)C1(c2ccc3c(c2)OC(F)(F)O3)CC1 (racemic) [Example 198, rac-(2R,4S)-4-({[1-(2,2-difluoro-1,3-benzodioxol-5-yl)cyclopropyl]carbonyl}amino)-N-[2-(3-hydroxyphenyl)ethyl]-7-methoxy-3,4-dihydro-2H-chromene-2-carboxamide] | 1710 | 67
14 | COc1ccc2c(c1)O[C@@H](C(=O)N(C)C1COC1)C[C@@H]2NC(=O)C1(c2ccc3c(c2)OC(F)(F)O3)CC1 (racemic) [Example 195, rac-(2R,4S)-4-({[1-(2,2-difluoro-1,3-benzodioxol-5-yl)cyclopropyl]carbonyl}amino)-7-methoxy-N-methyl-N-(oxetan-3-yl)-3,4-dihydro-2H-chromene-2-carboxamide] | 7530 | 37
15 | COC(=O)c1cccc([C@H]2C[C@@H](NC(=O)C3(c4ccc5c(c4)OC(F)(F)O5)CC3)c3ccc(C)cc3O2)c1 [Example 18, methyl 3-[(2R,4R)-4-({[1-(2,2-difluoro-1,3-benzodioxol-5-yl)cyclopropyl]carbonyl}amino)-7-methyl-3,4-dihydro-2H-chromen-2-yl]benzoate] | 350 | 113
16 | O=C(NC1CC2(CCN(C[C@@H](O)CO)CC2)Oc2cc(F)ccc21)C1(c2ccc3c(c2)OC(F)(F)O3)CC1 (stereo partly drawn) [Example 99, 1-(2,2-difluoro-1,3-benzodioxol-5-yl)-N-{1′-[(2R)-2,3-dihydroxypropyl]-7-fluoro-3,4-dihydrospiro[chromene-2,4′-piperidin]-4-yl}cyclopropanecarboxamide] | 3890 | 56
17 | COc1ccc2c(c1)O[C@@H](C(=O)N(C)CC(O)c1ccccc1)C[C@H]2NC(=O)C1(c2ccc3c(c2)OC(F)(F)O3)CC1 (mixture of isomers) [Example 168, rac-(2R,4R)-4-({[1-(2,2-difluoro-1,3-benzodioxol-5-yl)cyclopropyl]carbonyl}amino)-N-(2-hydroxy-2-phenylethyl)-7-methoxy-N-methyl-3,4-dihydro-2H-chromene-2-carboxamide] | 1160 | 67
18 | CC(=O)N1CC2(CC(NC(=O)C3(c4ccc5c(c4)OC(F)(F)O5)CC3)c3ccc(F)cc3O2)C1 (stereo not drawn) [Example 105, N-(1-acetyl-7′-fluoro-3′,4′-dihydrospiro[azetidine-3,2′-chromen]-4′-yl)-1-(2,2-difluoro-1,3-benzodioxol-5-yl)cyclopropanecarboxamide] | 7460 | 34
